# According to US20200199647A1, “ASSAY FOR SCREENING MODULATORS OF HOLOPHOSPHATASE ACTIVITY” (UNITED KINGDOM RESEARCH AND INNOVATION, priority 2017, published 2020):
# Key:
# R15A-PP1c = target: T1, R15A-PP1c (Homo sapiens, UniProt O75807); assay: In vitro dephosphorylation of P-eIF2α by recombinant R15A-PP1c holophosphatase (10 nM PP1c); format: biochemical; conditions: PP1c 10 nM, 1 μM P-eIF2α, compounds 100 μM, 30° C., 16 h
# T1 construct: PPP1R15A amino acids 325-636 (R15A); His6 (C); made in house; host or cells: E. coli BL21 pLysS (R15A, eIF2α); E. coli BL21/pGro7 (PP1c)
# T1 sequence (O75807 325-636, stated change not applied): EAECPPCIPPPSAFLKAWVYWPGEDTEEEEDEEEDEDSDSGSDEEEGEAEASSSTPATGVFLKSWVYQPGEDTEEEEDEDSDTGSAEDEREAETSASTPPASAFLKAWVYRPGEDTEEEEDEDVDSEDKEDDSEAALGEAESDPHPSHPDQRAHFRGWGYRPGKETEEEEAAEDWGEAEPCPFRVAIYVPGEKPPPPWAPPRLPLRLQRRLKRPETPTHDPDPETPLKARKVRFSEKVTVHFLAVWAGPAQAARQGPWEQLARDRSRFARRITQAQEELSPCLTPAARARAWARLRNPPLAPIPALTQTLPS
# T1 sequence (P62136 7-330 partner): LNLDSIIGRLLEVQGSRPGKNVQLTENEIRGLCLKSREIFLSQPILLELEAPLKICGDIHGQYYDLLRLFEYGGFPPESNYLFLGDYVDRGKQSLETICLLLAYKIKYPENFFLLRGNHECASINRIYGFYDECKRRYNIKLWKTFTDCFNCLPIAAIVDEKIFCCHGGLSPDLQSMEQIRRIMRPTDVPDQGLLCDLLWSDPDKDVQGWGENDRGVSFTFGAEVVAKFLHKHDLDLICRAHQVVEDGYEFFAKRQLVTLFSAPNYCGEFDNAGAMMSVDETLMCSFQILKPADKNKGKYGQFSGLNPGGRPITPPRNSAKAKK
# Experimental: (§1) PP1c was diluted to the appropriate concentration (as indicated in the figure legends) in dephosphorylation buffer immediately prior to use. Dephosphorylation reactions were carried out by pre-incubating diluted PP1c in the presence or absence of regulatory subunits (either […]), and/or compounds (all at 100 μM, except for Salubrinal which was used at 30 μM), for 15′ at RT. All compounds were diluted in DMSO, and DMSO vehicle was used in all control experiments.
# (§2) The reaction was initiated by the addition of 1 μM P-eIF2α or ^33P Phosphorylase a substrates and then incubated at 30° C. for 16 h with shaking at 350 rpm. Reactions were stopped by addition of 4× Laemmli sample buffer. eIF2α samples were analyzed by immunoblotting or Phos-tag gels. […] Samples in FIG. 8 and FIG. 16 were run on a 15% SuperSep Phos-tag acrylamide gel (Alpha Laboratories) and visualized by staining with InstantBlue Protein Stain.
# [1] = target: T2, PP1 (1 μM) in the presence of R15A (Homo sapiens, UniProt O75807); assay: In vitro dephosphorylation of P-eIF2α using stoichiometric PP1c (1 μM) with R15A; format: biochemical; conditions: 1 μM PP1c, 1 μM P-eIF2α, 30° C., 16 h; compounds 100 μM
# T2 construct: PPP1R15A amino acids 325-636 (R15A); His6 (C); made in house; host or cells: E. coli BL21 pLysS (R15A, eIF2α); E. coli BL21/pGro7 (PP1c)
# T2 sequence (O75807 325-636, stated change not applied): as the sequence (O75807 325-636, stated change not applied) above
# T2 sequence (P62136 7-330 partner): as the sequence (P62136 7-330 partner) above
# Experimental: as §1, §2
# R15A = target: T3, R15A (Homo sapiens, UniProt O75807); assay: Pull-down: binding of P-eIF2α to MBP-tagged R15A on amylose beads; conditions: 200 μM compound, 200 nM MBP-R15A, 1 μM P-eIF2α, 10 min 4° C.
# T3 construct: PPP1R15A amino acids 325-636 (R15A); His6 (C); made in house; host or cells: E. coli BL21 pLysS
# T3 sequence (O75807 325-636, stated change not applied): as the sequence (O75807 325-636, stated change not applied) above
# Experimental: (§3) Purified MBP-tagged regulatory subunits (200 nM), P-eIF2α (1 μM), PP1c ([…]), and 200 μM compounds, or DMSO vehicle, were added as appropriate to 20 μl amylose magnetic bead, pre-equilibrated with interaction buffer (50 mM Tris (pH 7.4), 200 mM NaCl, 0.05% Tween20) in 200 μl volume. All protein dilutions were carried out in interaction buffer. 5% input sample was removed, and added to 4× Laemmli sample buffer for later analysis. The beads were incubated for 10′ at 4° C. The supernatant was removed, and the beads were washed thoroughly with interaction buffer and then resuspended with 50 μl of 2× Laemmli sample buffer. Samples were run on 4-12% NuPAGE Bis-Tris gels (Life Technologies) and analysed by immunoblotting, using anti-MBP HRP (E8038) (NEB), anti-eIF2α (ab26197) (AbCam) or anti-PPP1A (ab137512) (AbCam) antibodies.
# R15B = target: T4, R15B (Homo sapiens, UniProt Q5SWA1); assay: Pull-down: binding of P-eIF2α to MBP-tagged R15B on amylose beads; conditions: 200 μM compound, 200 nM MBP-R15B, 1 μM P-eIF2α, 10 min 4° C.
# T4 construct: PPP1R15B amino acids 340-698 (R15B); His6 (C); made in house; host or cells: E. coli BL21 pLysS
# T4 sequence (Q5SWA1 340-698): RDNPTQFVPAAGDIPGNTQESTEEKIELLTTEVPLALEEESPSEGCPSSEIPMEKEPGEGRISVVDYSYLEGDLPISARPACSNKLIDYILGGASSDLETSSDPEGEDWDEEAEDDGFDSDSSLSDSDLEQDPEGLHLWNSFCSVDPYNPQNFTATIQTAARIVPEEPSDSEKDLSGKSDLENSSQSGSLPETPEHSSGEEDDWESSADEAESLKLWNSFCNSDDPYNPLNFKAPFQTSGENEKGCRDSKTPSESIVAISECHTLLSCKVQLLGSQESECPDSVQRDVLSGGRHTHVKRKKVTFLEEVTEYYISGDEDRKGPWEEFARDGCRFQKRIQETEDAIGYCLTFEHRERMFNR
# Experimental: as §3
# [2] = target: T5, PP1 (1 μM) in the presence of R15B (Homo sapiens, UniProt Q5SWA1); assay: In vitro dephosphorylation of P-eIF2α using stoichiometric PP1c (1 μM) with R15B; format: biochemical; conditions: 1 μM PP1c, 1 μM P-eIF2α, 30° C., 16 h; compound 100 μM
# T5 construct: PPP1R15B amino acids 340-698 (R15B); His6 (C); made in house; host or cells: E. coli BL21 pLysS (R15B, eIF2α); E. coli BL21/pGro7 (PP1c)
# T5 sequence (P62136 7-330 partner limits assumed, one chain of several): as the sequence (P62136 7-330 partner) above
# Experimental: as §1
# The reaction was initiated by the addition of 1 μM P-eIF2α or ^33P Phosphorylase a substrates and then incubated at 30° C. for 16 h with shaking at 350 rpm. Reactions were stopped by addition of 4× Laemmli sample buffer. eIF2α samples were analyzed by immunoblotting or Phos-tag gels. P-eIF2α dephosphorylation was analysed by immunoblotting using anti-Phospho-eIF2α (SerS1) (#9721) (Cell Signaling) and anti-eIF2α (ab26197) (AbCam) antibodies. Samples in FIG. 8 and FIG. 16 were run on a 15% SuperSep Phos-tag acrylamide gel (Alpha Laboratories) and visualized by staining with InstantBlue Protein Stain.
# As previously reported (Connor et al., 2001), in vitro PP1c alone (1 μM) dephosphorylated eIF2α, and in vitro co-incubation with R15A had no effect in this assay (FIG. 1A). […]
inhibition of R15A-PP1c eIF2α holophosphatase (R15A-PP1c),effect on binding of eIF2α to R15B (R15B),Compound,effect on dephosphorylation of eIF2α by PP1c with R15A [1],effect on binding of eIF2α to R15A (R15A),effect on dephosphorylation of eIF2α by PP1c with R15B [2]
selectively inhibited R15A-PP1c,no such effect was observed,N=C(N)N/N=C/c1c(Cl)cccc1Cl [Guanabenz],"neither the selective R15A inhibitors, Guanabenz and Sephin1, nor the selective inhibitor of R15B, Raphin1, had any measurable effects",decreased the binding of R15A to eIF2α,
not R15A-PP1c,decreased the binding of eIF2α to R15B,NC(N)=N/N=C/c1cccc(Cl)c1Cl [Raphin1],,this inhibition was not observed with R15A,"nor the selective inhibitor of R15B, Raphin1, had any measurable effects"
